Data on 20 molecules can be found in patent US4767768A, “Nitro aliphatic compounds, process for preparation thereof and use thereof” (Fujisawa Pharmaceutical Co., Ltd., priority 1982, dated 1988).

In one assay the test system is blood pressure. Nature of the assay: Hypotensive activity in anesthetized rat. Format: in vivo, rat (Sprague-Dowley). To be noted: intravenous, urethane-anesthetized rat. The protocol: A 8 weeks-old Sprague-Dowley strain rat was anesthetized with urethane (0.7 g/kg, i.p). Blood pressure was recorded from femoral artery using a transducer coupled to a Biophysiograph 180 system (made by Sanei Sokuki Co., Ltd.). The femoral vein was cannulated to permit intravenous injection of the test compound. The test compound was dissolved in saline and injected in a volume of 0.2 ml.

For assay [1], the system named is rabbit platelet aggregation. Nature of the assay: Inhibition of rabbit platelet aggregation (turbidimetric, platelet rich plasma). To be noted: Oryctolagus cuniculus. The class given is cell-based, rabbit (male Japanese White). The protocol: Inhibitory activity of the nitro aliphatic compounds of this invention against rabbit platelet aggregation was measured according to the method described below.
Blood was collected from the central ear arteries of male Japanese White rabbit (2.5 to 3.0 kg body weight). The blood was prevented from coagulation with 1 volume of 3.8% sodium citrate to 9 volumes of blood. Platelet rich plasma (PRP) was prepared by centrifugation of the blood at 1300 rpm for 10 min. at 10° C. The PRP was diluted with platelet poor plasma obtained by further centrifugation of the blood at 3000 rpm for 10 min. The platelet counts in the PRP used for aggregation studies were about 4.0×10^5 platelets/mm^3. Aggregometry was performed with platelet aggregating agents in a SIENCO dual sample aggregometer (DP-247E) at 37° C., using 0.3 ml combined volume of PRP and reagents in a cylindrical glass cuvette under constant stirring with a magnetic stirring bar. Platelet aggregation was measured turbidimetrically by recording changes in the light transmission of PRP during aggregation. Activities of inhibitors were expressed as IC50 values i.e. concentrations required to inhibit the platelet aggregation responses by 50%. Collagen was used in amounts (2 to 20 μg/ml for PRP) sufficient to induce a response that was 80 to 90% of the maximum obtainable. Arachidonic acid was used at a final concentration of 5 μM. Similarly a final concentration of adenosine di-phosphate (ADP), usually 1 to 5 μM was choosen to induce approximately 75% of the maximum aggregation. Thrombin was used at a final concentration of 0.3 U/ml.

[2] abbreviates: Inducer: Thrombin (0.3 U/ml), Table 2, read-out: IC50, platelet aggregation.

Converted amounts (≈) assume the structure as drawn. Read-outs that look alike come from different tables or passages of the source.

With `CC/C(=C\C(=NO)C(N)=O)C(C)[N+](=O)[O-]` (stereo not drawn) [Example 1, (E)-4-ethyl-2-hydroxyimino-5-nitro-3-hexenamide], the “Hypotensive effect, Duration” value in the assay with blood pressure (10 μg/kg) was determined as 1.5 min; in the assay with blood pressure (100 μg/kg), 4 min. For the same molecule, the “Hypotensive effect, Maximal decrease” value is 10 mm Hg in the assay with blood pressure (10 μg/kg) and 40 mm Hg in the assay with blood pressure (100 μg/kg). Moreover, the IC50 – broadly, the concentration needed to halve the response being measured – in assay [1] (inducer: ADP (usually 1 to 5 μM), read-out: IC50 value, platelet aggregation) worked out at 0.15 µg/mL (≈ 0.697 µM); in assay [1] (inducer: Arachidonic acid (5 μM), read-out: IC50 value, platelet aggregation) it was 0.75 µg/mL (≈ 3.48 µM); in assay [1] (inducer: Collagen (2 to 20 μg/ml), read-out: IC50 value, platelet aggregation), 0.07 µg/mL (≈ 0.325 µM); in assay [1] (inducer: Thrombin (0.3 U/ml), Table 1, read-out: IC50 value, platelet aggregation), 0.15 µg/mL (≈ 0.697 µM). Regarding `CCCCNC(=O)C(C=C(CC)C(C)[N+](=O)[O-])=NO` (stereo not drawn) [Example 2, N-n-butyl-4-ethyl-2-hydroxyimino-5-nitro-3-hexenamide], the IC50 in assay [1] (setting [2]) stood at 0.15 µg/mL (≈ 0.553 µM).

Regarding `CCC(=CC(=NO)C(=O)NC)C(C)[N+](=O)[O-]` (stereo not drawn) [Example 3, N-Methyl-4-ethyl-2-hydroxyimino-5-nitro-3-hexenamide], the IC50 in assay [1] (setting [2]) amounted to 0.3 µg/mL (≈ 1.31 µM).

Turning to `CCC(=CC(=NO)C(=O)N1CCN(C=O)CC1)C(C)[N+](=O)[O-]` (stereo not drawn) [Example 4, 1-Formyl-4-(4-ethyl-2-hydroxyimino-5-nitro-3-hexenoyl)piperazine], the IC50 in assay [1] (setting [2]) was found to be 0.3 µg/mL (≈ 0.961 µM). On to `CCC(=CC(=NO)C(=O)NCC(=O)O)C(C)[N+](=O)[O-]` (stereo not drawn) [Example 6, N-(4-Ethyl-2-hydroxyimino-5-nitro-3-hexenoyl)glycine], for which the IC50 in assay [1] (setting [2]) amounted to 0.15 µg/mL (≈ 0.549 µM).

On to `CCC(=CC(=NO)C(=O)N1CCCCC1)C(C)[N+](=O)[O-]` (stereo not drawn) [Example 7, N-(4-Ethyl-2-hydroxyimino-5-nitro-3-hexenoyl)piperidine], for which, in assay [1] (setting [2]), the IC50 stood at 0.75 µg/mL (≈ 2.65 µM).

With `CCC(=CC(=NO)C(=O)N[C@H](C(=O)O)[C@@H](C)O)C(C)[N+](=O)[O-]` (stereo partly drawn) [Example 10, N-(4-Ethyl-2-hydroxyimino-5-nitro-3-hexenoyl)-L-threonine], the IC50 in assay [1] (setting [2]) amounted to 0.3 µg/mL (≈ 0.945 µM). With `CCC(=CC(=NO)C(=O)NCc1ccccc1)C(C)[N+](=O)[O-]` (stereo not drawn) [Example 11, N-Benzyl-4-ethyl-2-hydroxyimino-5-nitro-3-hexenamide], the IC50 in assay [1] (setting [2]) came to 0.15 µg/mL (≈ 0.491 µM). On to `CCC(=CC(=NO)C(N)=O)C(c1ccc(OC)cc1)[N+](=O)[O-]` (stereo not drawn) [Example 14, 4-Ethyl-2-hydroxyimino-5-(4-methoxyphenyl)-5-nitro-3-pentenamide], for which the IC50 in assay [1] (setting [2]) was 0.3 µg/mL (≈ 0.976 µM).

Regarding `CCC(=CC(=NO)C(=O)NCCCC(=O)O)C(C)[N+](=O)[O-]` (stereo not drawn) [Example 15, N-[4-Ethyl-2-hydroxyimino-5-nitro-3-hexenoyl]-4-aminobutyric acid], the IC50 in assay [1] (setting [2]) is 0.75 µg/mL (≈ 2.49 µM). Same read-out and setting: next, `CCC(=CC(C#N)=NO)C(C)[N+](=O)[O-]` (stereo not drawn) [Example 17, 4-Ethyl-2-hydroxyimino-5-nitro-3-hexenenitrile]: 1.5 µg/mL (≈ 7.61 µM); `CCC(=CC(C=O)=NO)C(C)[N+](=O)[O-]` (stereo not drawn) [Example 18, 4-Ethyl-2-hydroxyimino-5-nitro-3-hexenal]: 3 µg/mL (≈ 15 µM). Same read-out and setting: next, `CCOC(=O)C(C=C(CC)C(C)[N+](=O)[O-])=NO` (stereo not drawn) [Example 19, Ethyl 4-ethyl-2-hydroxyimino-5-nitro-3-hexenoate]: 0.07 µg/mL (≈ 0.287 µM); `CCC(=CC(=NO)C(=O)NCC(=O)OC)C(C)[N+](=O)[O-]` (stereo not drawn) [Example 20, Methyl 2-[4-ethyl-2-hydroxyimino-5-nitro-3-hexenoylamino]acetate]: 0.15 µg/mL (≈ 0.522 µM); `CCC(=CC(C=NO)=NO)C(C)[N+](=O)[O-]` (stereo not drawn) [Example 21, 4-ethyl-2-hydroxyimino-5-nitro-3-hexenaldehyde oxime]: 0.15 µg/mL (≈ 0.697 µM). The same measure, in the same setting: next, `CCC(=CC(CO)=NO)C(C)[N+](=O)[O-]` (stereo not drawn) [Example 22, 4-ethyl-2-hydroxyimino-5-nitro-3-hexen-1-ol]: 0.75 µg/mL (≈ 3.71 µM). Turning to `CCC(=CC(COC(C)=O)=NO)C(C)[N+](=O)[O-]` (stereo not drawn) [Example 23, 1-Acetoxy-4-ethyl-2-hydroxyimino-5-nitro-3-hexene], the IC50 in assay [1] (setting [2]) came to 0.15 µg/mL (≈ 0.614 µM). For `CCC(CC(=NO)C(=O)NC(C)(C)C)C(C)[N+](=O)[O-]` (stereo not drawn) [Example 24, N-t-butyl-4-ethyl-2-hydroxyimino-5-nitrohexanamide], the IC50 in assay [1] (setting [2]) turned out to be 1.5 µg/mL (≈ 5.49 µM). The same measure, in the same setting: next, `CCC(CC(=NO)C(N)=O)C(C)[N+](=O)[O-]` (stereo not drawn) [Example 25, 4-Ethyl-2-hydroxyimino-5-nitro-hexanamide]: 6 µg/mL (≈ 27.6 µM); `CCC(=CC=NO)C(C)[N+](=O)[O-]` (stereo not drawn) [Example 28, 3-ethyl-4-nitro-2-pentenaloxime]: 6 µg/mL (≈ 34.8 µM).
